{
  "source": "patent US9051575B2",
  "about": "“Alga in which production of photosynthetic products is improved, and use for said alga” (Japan Science and Technology Agency, priority 2010, dated 2015)",
  "format_in_all_cases": "cell-based, Chlamydomonas reinhardtii",
  "key": {"[1]": {"test_system": "GSH1 overexpressing strain", "test": "Flow cytometry of particle densities in the culture (TAP medium, semi-heterotrophic)", "details": "addition of 8 mM BSO, 45 μE/m^2/sec, number of particles in 1 mL culture solution divided by the cube of 10", "method": "(§1) The GSH1 overexpressing strain produced in Example 1 was cultured under a semi-heterotrophic condition with the use of tris-acetate-phosphate (TAP) medium having pH7 (see Proc. Natl. Acad. Sci. USA, 54, 1665-1669.), and a growth capacity and a starch production capacity of the GSH1 overexpressing strain were evaluated. A CC503 strain (hereinafter referred to as “parent strain (wild-type strain)”) which is a wild-type Chlamydomonas strain was used as a control.\n(§2) Flow cytometry was carried out for more detailed analysis of the states of the GSH1 overexpressing strain of Sample 4 and the parent strain (wild-type strain) of Sample 8. Specifically, the cells of Samples 4 and 8 were irradiated with excitation light of 488 nm, and fluorescence intensity in the vicinity of 600 nm was measured. The fluorescence in the vicinity of 600 nm corresponds to chlorophyll fluorescence. Along with the chlorophyll fluorescence, fluorescent particles (produced by Beckman Coulter Inc., product name: Flow count) were used as an internal control for measuring a cell density. In this way, fluorescence in the range from 525 nm to 700 nm emitted by the excitation light of 488 nm was measured. Further, forward-scattered light and lateral-scattered light were measured so as to measure cell (particle) size and cell (particle) internal complexity.\n(§3) Note that the number of cells (particles) shown in Tables 3 and 4, which is expressed by a value obtained by dividing the number of particles contained in 1 mL of the culture solution by the cube of 10, was found on the basis of the value of the internal control."}, "[2]": {"test_system": "parent strain (wild-type strain) CC503", "test": "Flow cytometry of particle densities in the culture (TAP medium, semi-heterotrophic)", "details": "addition of 8 mM BSO, 45 μE/m^2/sec, number of particles in 1 mL culture solution divided by the cube of 10", "method": "as §1, §2, §3"}, "[3]": {"test_system": "GSH1 overexpressing strain", "test": "Starch production capacity / discharge of starch grains to outside of cells (clouding of culture solution, iodostarch reaction)", "details": "BSO added to TAP medium, final concentration 8 mM", "method": "as §1\nL-Buthionine-sulfoximine (abbreviated as BSO (produced by Sigma-Aldrich Corporation, Model No. B2515) added to TAP medium in Samples 2 and 6 is an inhibitor for GSH synthesis.\n(a) of FIG. 1 is a graph showing growth capacities of the respective GSH1 overexpressing strains, and (b) of FIG. 1 is a view showing states of respective culture solutions 309 hours after start of culturing. (a) of FIG. 2 is a graph showing growth capacities of respective parent strains (wild-type strains), and (b) of FIG. 2 is a view showing states of respective culture solutions 215 hours after start of culturing. […] The optical density represented by the vertical axis was measured by a device (manufactured by TAITEC CORPORATION, ODSensor-S/ODBox-A) for measuring an OD value on the basis of a transmission amount of infrared rays (950 nm). […]"}},
  "note": "“Also recorded” adds a separate entry of the source.",
  "data": [
    {"smiles": "CCCCS(=N)(=O)CCC(N)C(=O)O", "note": "[BSO, L-Buthionine-sulfoximine]", "values": [
      {"measurement": "density of particles which did not emit chlorophyll-derived fluorescence as a result of irradiation of excitation light (488 nm) (starch grains)", "setting": "[1]", "value": 602},
      {"measurement": "density of particles which emitted chlorophyll-derived fluorescence as a result of irradiation of excitation light (488 nm)", "setting": "[1]", "value": "4,228"},
      {"measurement": "density of particles which did not emit chlorophyll-derived fluorescence as a result of irradiation of excitation light (488 nm) (starch grains)", "setting": "[2]", "value": 27},
      {"measurement": "density of particles which emitted chlorophyll-derived fluorescence as a result of irradiation of excitation light (488 nm)", "setting": "[2]", "value": "19,633"},
      {"measurement": "discharge of starch to an outside of the cells", "setting": "[3]", "value": "starch was not discharged to an outside of the cells; also recorded: starch was not discharged into an outside of the cells"}
    ]}
  ]
}
